# From US7749496B2, “Neuronal regeneration” (Case Western Reserve University, priority 2001, dated 2010)
# What was measured:
# Format in all cases: cell-based
# NG108-15 cells = assay: Neurite crossing of laminin/aggrecan (CSPG) boundary after protein transduction; details: for neurite extension across laminin/CSPG boundary: vs controls
# Excerpt: We developed a second model to observe the effects of substrate-bound GAGs or CSPGs on neurite extension. Briefly, alternating lanes of the CSPG aggrecan and laminin were created on 60 mm diameter tissue culture dishes using a modified version of the Bonhoeffer method. Thus, neurite extension of cells across laminin/CSPG boundaries could be observed in these coated tissue culture dishes. Such laminin/CSPG coated dishes were used for the experiments summarized in the following examples and in FIGS. 7-10.
# NG108-15 cells (available from ATCC, Manassas, Va.) were removed from culture flasks and resuspended in Neurobasal-A media (Invitrogen, Carlsbad, Calif.) supplemented with N-2, L-glutamine, and 1% penicillin/streptomycin. 2×10^4 NG108-15 cells were added to a laminin/CSPG coated dish as described in Example 8. After approximately 4 hours, the cells formed lanes adhering to the laminin lanes. The ability of the cells to migrate and/or extend processes across the laminin/CSPG boundary was then assessed following transduction of the cells with control proteins, with various Class I activator proteins, or with a Class 2 inhibitor protein.
# Cells were transduced using the CHARIOT protein transduction system with any one of the following: GST control alone, activated Cdc42-GST, dominant negative Cdc42-GST, activated Rac1-GST, dominant negative Rac1-GST, activated RhoA-GST, or the RhoA inhibitor C3 transferase (Cytoskeleton, Denver, Colo.). The activated and dominant negative variants used for these experiments were as following: activated Cdc42=Q61L Cdc42, dominant negative Cdc42=T17N Cdc42, activated Rac1=Q61L Rac1, dominant negative Rac1=T17N […], activated RhoA=Q63 L RhoA. Following protein transduction, cells were placed in humidified incubators at 37° C., and 5% CO2 and were […] after 48 hours.
# E9 chick DRG = assay: Three-dimensional layered agarose gel, neurite crossing of gel interfaces; details: for percentage of DRG neurites that cross the interface between 2 layers: interface of 1% agarose and 2% agarose modified with chondroitin sulfate, compared to non-GAG agarose interface, FIG. 3
# Excerpt: This three-dimensional system allows observation of neuronal cell behavior at gel interfaces. In this example, layer 1 is a control interface composed of 1% agarose, layer 2 contains the neuronal explant, in this case an explant of dorsal root ganglia (DRG) in 1% agarose, and layer 3 is 2% agarose containing chondroitin sulfate-B. The layer 1/layer 2 interface provides a control agarose/agarose interface, while the layer 2/layer 3 interface provides an agarose/CS-GAG rich agarose interface. The ability of neurites to cross the interface between layer 2/layer 3 can be measured.
# Agarose gels were made by dissolving SeaPrep agarose (FMC Corp) in pH 7.4 PBS. Agarose solutions were sterilized by p assing through a 0.45 u m filter, gelled and stored at 4° C. Prior to use, the gels were degelled at 65° C., cooled to 37° C., and gelled.
# For construction of three dimensional system, agarose gels were layered in a rectangular culture dish. 1% liquid agarose was poured into the dish, and chilled to allow layer 1 to gel. After layer 1 had gelled, liquid agarose containing several E9 chick DRG were poured onto layer 1, and chilled to form layer 2. After layer 2 had gelled, 2% liquid agarose containing chondroitin sulfate-B was poured onto layer 2 and chilled to form layer 3.
# To maintain the cells in this culture system, culture medium consisting of DMEM supplemented with 10% fetal bovine serum, 1% penicillin-streptomycin, and 50 ng/mL nerve growth factor was added to the top of the gel.
# The ability of neuronal cells to extend processes across the interfaces was quantified by determining the percentage of neurites that successfully crossed the interface using light microscopy.
# NG108 cells = assay: Two dimensional coverslip with alternating stripes of chondroitin sulfate, crossing of short axis; details: protein delivered with Chariot protein transduction system; unmodified cells less than 10%; FIG. 5A
# Excerpt: We developed a two-dimensional model to observe the effects of substrate-bound GAGs or CSPGs on neurite extension. Briefly, the surfaces of glass coverslips were modified using 3-aminopropyltriethoxysilane, which binds amines to the surface. Through a two-step covalent coupling procedure, chondroitin sulfate C(CS-C) was crosslinked to the amines on the surface of the coverslip. First, CS-C was linked to EDAC, a zero-length crosslinker, that reacts with amine groups. With the aid of the Bonhoeffer matrix the CS-C-EDAC solution was passed into the microchannels incubated at room temperature for 30 minutes and removed. This process was repeated three additional times with fresh CS-C-EDAC solution. The CS-C covalently couple to the amines on the modified coverslip via the EDAC.
# The coverslips were sonicated for 5 minutes to remove any CS-C that was not covalently bound to the coverslip. The coverslips were sterilized in 70% ethanol, and 15,000 cells were seeded on top of the micropatterned area and incubated at 37° C., 5% CO2. The behavior of the seeded cells can now be examined in the presence or absence of agents which either influence the cells themselves (e.g., Class I activators, Class II inhibitors, etc.) or agents which alter the CS-C. […]
# [1] = Chariot transduction, imaged after 48 hours, vs untransduced or GST alone, FIG. 7
substance,measurement,setting,value
"activated RhoA: Q63L RhoA constitutively active Rho family GTPase variant, GST protein",percentage of neurites that cross a laminin/aggrecan boundary,NG108-15 cells; [1],did not significantly promote
"dominant negative Cdc42: T17N Cdc42 dominant negative Rho family GTPase variant, GST protein",percentage of neurites that cross a laminin/aggrecan boundary,NG108-15 cells; [1],did not significantly promote
chondroitin-sulfate B,percentage of DRG neurites that cross the interface between 2 layers,E9 chick DRG,statistically significant decrease
same,percentage of DRG neurites that cross the interface between 2 layers,E9 chick DRG; listed as CS-GAG,significantly inhibited
same,extension of neuronal processes at the layer 2/layer 3 interface,"E9 chick DRG; layer 3 is 2% agarose modified with chondroitin sulfate B, FIG. 2C",inhibited
C3 transferase,neurite extension across laminin/CSPG boundary,"NG108-15 cells; 2 μg/mL, FIG. 10",statistically significant
same,neurite extension across laminin/CSPG boundary,"NG108-15 cells; 4 μg/mL, FIG. 10",statistically significant
same,percentage of neurites that cross a laminin/aggrecan boundary,NG108-15 cells; [1],statistically significant increase
same,dose dependence of neurite crossing of laminin/aggrecan boundary,"NG108-15 cells; various concentrations, in the presence of Chariot, FIG. 10",statistically significant and dose dependent increase
"constitutively active Cdc42: Q61L mutation of human Cdc42 (SEQ ID NO: 2), constitutively active Rho family GTPase protein, delivered by Chariot protein transduction",percentage of NG108 cells that cross the short axis of chondroitin sulfate GAG coverslip,NG108 cells,approximately 50%
same,percentage of neurites that cross a laminin/aggrecan boundary,"NG108-15 cells; 4 μg/mL, Chariot transduction, vs untransduced cells, FIG. 8",statistically significant increase
same,dose dependence of neurite extension across laminin/CSPG boundary,"NG108-15 cells; 1, 2, 3, 4 μg/mL, Chariot transduction, FIG. 8",dose dependent increase
same,percentage of neurites that cross a laminin/aggrecan boundary,NG108-15 cells; [1],statistically significant increase
